Measured values taken from patent US20200078468A1, “NEUROTENSIN RECEPTOR BINDING CONJUGATES AND FORMULATIONS THEREOF” (priority 2016, published 2020).
Numbered stars: 1 amine (or outer) side, 2 acyl side, 3 side chain; on linkers, the order of the positions; unused ones are H or OH. Bridge positions count the residues as written; N and C are the ends. Square brackets hold non-standard residues; d marks the D form. Peptide text beside a SMILES is read from it. I, II: the chains in the order shown. * marks the point of attachment. X5 = CC(C)C[C@H](NC(=O)[C@H](Cc1ccccc1)NC(=O)CCCCCN1C(=O)CC(*)C1=O)B1O[C@@H]2[C@@H]3C[C@H](C[C@]2(C)O1)C3(C)C; SN38(20-O) = CCc1c2c(nc3ccc(O)cc13)-c1cc3c(c(=O)n1C2)COC(=O)[C@@]3(CC)O*; Hexanoyl(6-succinimido-3yl) = O=C1CC([*:1])C(=O)N1CCCCCC(=O)[*:2]; Pen = CC(C)(S)[C@H](N)C(=O)O; Tle = CC(C)(C)[C@H](N)C(=O)O

System: SW48 (human colon cancer cells)
Assay: inhibition of SW48 cell proliferation (CellTiter Glo)
Format: cell-based
Conditions: NTSR1 targeted compound; 72 hrs; read-out: SW-48 proliferation IC50
Procedure: Conjugates were assessed in an in vitro assay evaluating inhibition of cell proliferation. SW48 (human colon cancer cells, ATCC®), cells were plated in 96 well, flat-bottomed plates (Costar) at a concentration of 5,000 cells/well. Cells were then incubated at 37° C. with 5% CO2 for 24 hrs. After 24 hrs, cells were treated with 0.01% DMSO or compound. Compounds were added at a starting dose of 10 μM and three fold serial dilutions were done for a total often points. Following compound addition, cells were incubated at 37° C. with 5% CO2 for 72 hrs. Proliferation was measured by CellTiter Glo reagent using the standard protocol (Promega) and a Glomax multi+detection system (Promega). Percent proliferation inhibition was calculated using the following formula: % inhibition=(control−treatment)/control*100. Control is defined as vehicle alone. IC50 curves were generated using the nonlinear regression analysis (four parameter) with GraphPad Prism 6.
Conjugates are assessed for receptor-dependent cytotoxicity by the difference between an NTSR1-targeting conjugate, and the corresponding conjugate with the same linker moiety and active agent where the NTSR1-targeting domain has been scrambled.

SMILES | IC50 [nM]
CC(=O)N[C@H](C(=O)N1CCC[C@H]1C(=O)N[C@@H](CCCNC(=N)N)C(=O)N[C@@H](CCCNC(=N)N)C(=O)N1CCC[C@H]1C(=O)N[C@@H](Cc1ccc(O)cc1)C(=O)N[C@H](C(=O)N[C@@H](CC(C)C)C(=O)O)C(C)(C)C)C(C)(C)SC1CC(=O)N(CCCCCC(=O)N[C@@H](Cc2ccccc2)C(=O)N[C@@H](CC(C)C)B2O[C@@H]3[C@@H]4C[C@H](C[C@]3(C)O2)C4(C)C)C1=O (stereo partly drawn) [Compound 1] (Ac-[Pen](X5)PRRPY[Tle]L-OH) | > 10000
CO[C@H]1C(=O)[C@]2(C)[C@@H](OC)C[C@H]3OC[C@@]3(OC(C)=O)[C@H]2[C@H](OC(=O)c2ccccc2)[C@]2(O)C[C@H](OC(=O)[C@H](OC(=O)N(C)CCN(C)C(=O)OCc3ccc(NC(=O)[C@H](CCCNC(N)=O)NC(=O)[C@@H](NC(=O)CCCCCN4C(=O)CC(SC(C)(C)[C@H](NC(C)=O)C(=O)N5CCC[C@H]5C(=O)N[C@@H](CCCNC(=N)N)C(=O)N[C@@H](CCCNC(=N)N)C(=O)N5CCC[C@H]5C(=O)N[C@@H](Cc5ccc(O)cc5)C(=O)N[C@H](C(=O)N[C@@H](CC(C)C)C(=O)O)C(C)(C)C)C4=O)C(C)C)cc3)[C@@H](NC(=O)OC(C)(C)C)c3ccccc3)C(C)=C1C2(C)C (some centres unmarked) [Compound 5] | 1700
CO[C@H]1C(=O)[C@]2(C)[C@@H](OC)C[C@H]3OC[C@@]3(OC(C)=O)[C@H]2[C@H](OC(=O)c2ccccc2)[C@]2(O)C[C@H](OC(=O)[C@H](OC(=O)N(C)CCN(C)C(=O)OCc3ccc(NC(=O)[C@H](CCCNC(N)=O)NC(=O)[C@@H](NC(=O)CCCCCN4C(=O)CC(SC(C)(C)[C@H](NC(C)=O)C(=O)N5CCC[C@H]5C(=O)N[C@@H](CCCNC(=N)N)C(=O)N(C)[C@@H](CCCNC(=N)N)C(=O)N5CCC[C@H]5C(=O)N[C@@H](Cc5ccc(O)cc5)C(=O)N[C@H](C(=O)N[C@@H](CC(C)C)C(=O)O)C(C)(C)C)C4=O)C(C)C)cc3)[C@@H](NC(=O)OC(C)(C)C)c3ccccc3)C(C)=C1C2(C)C (some centres unmarked) [Compound 6] | 2240
CO[C@H]1C(=O)[C@]2(C)[C@@H](OC)C[C@H]3OC[C@@]3(OC(C)=O)[C@H]2[C@H](OC(=O)c2ccccc2)[C@]2(O)C[C@H](OC(=O)[C@H](OC(=O)N(C)CCN(C)C(=O)OCc3ccc(NC(=O)[C@H](CCCNC(N)=O)NC(=O)[C@@H](NC(=O)CCCCCN4C(=O)CC(SC(C)(C)[C@H](NC(C)=O)C(=O)N5CCC[C@H]5C(=O)N[C@@H](CCCNC(=N)N)C(=O)N(C)[C@@H](CCCNC(=N)N)C(=O)N5CCC[C@H]5C(=O)N[C@H](Cc5ccc(O)cc5)C(=O)N[C@H](C(=O)N[C@@H](CC(C)C)C(=O)O)C(C)(C)C)C4=O)C(C)C)cc3)[C@@H](NC(=O)OC(C)(C)C)c3ccccc3)C(C)=C1C2(C)C (some centres unmarked) [Compound 7] | 2000
CO[C@H]1C(=O)[C@]2(C)[C@@H](OC)C[C@H]3OC[C@@]3(OC(C)=O)[C@H]2[C@H](OC(=O)c2ccccc2)[C@]2(O)C[C@H](OC(=O)[C@H](OC(=O)N(C)CCN(C)C(=O)OCc3ccc(NC(=O)[C@H](CCCNC(N)=O)NC(=O)[C@@H](NC(=O)CCCCCN4C(=O)CC(SC(C)(C)[C@H](NC(C)=O)C(=O)N5CCC[C@H]5C(=O)N[C@@H](CCCCN)C(=O)N(C)[C@@H](CCCNC(=N)N)C(=O)N5CCC[C@H]5C(=O)N[C@@H](Cc5ccc(O)cc5)C(=O)N[C@H](C(=O)N[C@@H](CC(C)C)C(=O)O)C(C)(C)C)C4=O)C(C)C)cc3)[C@@H](NC(=O)OC(C)(C)C)c3ccccc3)C(C)=C1C2(C)C (some centres unmarked) [Compound 8] | 2450
CO[C@H]1C(=O)[C@]2(C)[C@@H](OC)C[C@H]3OC[C@@]3(OC(C)=O)[C@H]2[C@H](OC(=O)c2ccccc2)[C@]2(O)C[C@H](OC(=O)[C@H](OC(=O)N(C)CCCNC(=O)CNC(=O)[C@H](CC(C)C)NC(=O)[C@H](Cc3ccccc3)NC(=O)CNC(=O)CCCCCN3C(=O)CC(SCCC(=O)NCCCC[C@H](NC(C)=O)C(=O)N4CCC[C@H]4C(=O)N(C)[C@@H](CCCNC(=N)N)C(=O)N[C@@H](CCCNC(=N)N)C(=O)N4CCC[C@H]4C(=O)N[C@@H](Cc4ccc(O)cc4)C(=O)N[C@H](C(=O)N[C@@H](CC(C)C)C(=O)O)C(C)(C)C)C3=O)[C@@H](NC(=O)OC(C)(C)C)c3ccccc3)C(C)=C1C2(C)C (some centres unmarked) [Compound 9] | > 10000
COc1cc2cc(c1Cl)N(C)C(=O)C[C@H](OC(=O)[C@H](C)N(C)C(=O)CCSC1CC(=O)N(CCCNC(=O)CNC(=O)[C@H](CC(C)C)NC(=O)[C@H](Cc3ccccc3)NC(=O)CNC(=O)CCCCCN3C(=O)CC(SCCC(=O)NCCCC[C@H](NC(C)=O)C(=O)N4CCC[C@H]4C(=O)N(C)[C@@H](CCCNC(=N)N)C(=O)N[C@@H](CCCNC(=N)N)C(=O)N4CCC[C@H]4C(=O)N[C@@H](Cc4ccc(O)cc4)C(=O)N[C@H](C(=O)N[C@@H](CC(C)C)C(=O)O)C(C)(C)C)C3=O)C1=O)[C@]1(C)O[C@H]1[C@H](C)[C@@H]1C[C@@](O)(NC(=O)O1)[C@H](OC)/C=C/C=C(\C)C2 (some centres unmarked) [Compound 23] | 38.6
COc1cc2cc(c1Cl)N(C)C(=O)C[C@H](OC(=O)[C@H](C)N(C)C(=O)CCSC1CC(=O)N(CCCNC(=O)CNC(=O)[C@H](CC(C)C)NC(=O)[C@H](Cc3ccccc3)NC(=O)CNC(=O)CCCCCN3C(=O)CC(SCCC(=O)NCCOCCOCCC(=O)NCCCC[C@H](NC(C)=O)C(=O)N4CCC[C@H]4C(=O)N(C)[C@@H](CCCNC(=N)N)C(=O)N[C@@H](CCCNC(=N)N)C(=O)N4CCC[C@H]4C(=O)N[C@@H](Cc4ccc(O)cc4)C(=O)N[C@H](C(=O)N[C@@H](CC(C)C)C(=O)O)C(C)(C)C)C3=O)C1=O)[C@]1(C)O[C@H]1[C@H](C)[C@@H]1C[C@@](O)(NC(=O)O1)[C@H](OC)/C=C/C=C(\C)C2 (some centres unmarked) [Compound 24] | 2
COc1cc2cc(c1Cl)N(C)C(=O)C[C@H](OC(=O)[C@H](C)N(C)C(=O)CCSC1CC(=O)N(CCCNC(=O)CNC(=O)[C@H](CC(C)C)NC(=O)[C@H](Cc3ccccc3)NC(=O)CNC(=O)CCCCCN3C(=O)CC(SCCC(=O)NCCOCCOCCOCCOCCC(=O)NCCCC[C@H](NC(C)=O)C(=O)N4CCC[C@H]4C(=O)N(C)[C@@H](CCCNC(=N)N)C(=O)N[C@@H](CCCNC(=N)N)C(=O)N4CCC[C@H]4C(=O)N[C@@H](Cc4ccc(O)cc4)C(=O)N[C@H](C(=O)N[C@@H](CC(C)C)C(=O)O)C(C)(C)C)C3=O)C1=O)[C@]1(C)O[C@H]1[C@H](C)[C@@H]1C[C@@](O)(NC(=O)O1)[C@H](OC)/C=C/C=C(\C)C2 (some centres unmarked) [Compound 25] | 2.2
COc1cc2cc(c1Cl)N(C)C(=O)C[C@H](OC(=O)[C@H](C)N(C)C(=O)CCSC1CC(=O)N(CCCNC(=O)CNC(=O)[C@H](CC(C)C)NC(=O)[C@H](Cc3ccccc3)NC(=O)CNC(=O)CCCCCN3C(=O)CC(SCCC(=O)NCCOCCOCCOCCOCCOCCOCCOCCOCCC(=O)NCCCC[C@H](NC(C)=O)C(=O)N4CCC[C@H]4C(=O)N(C)[C@@H](CCCNC(=N)N)C(=O)N[C@@H](CCCNC(=N)N)C(=O)N4CCC[C@H]4C(=O)N[C@@H](Cc4ccc(O)cc4)C(=O)N[C@H](C(=O)N[C@@H](CC(C)C)C(=O)O)C(C)(C)C)C3=O)C1=O)[C@]1(C)O[C@H]1[C@H](C)[C@@H]1C[C@@](O)(NC(=O)O1)[C@H](OC)/C=C/C=C(\C)C2 (some centres unmarked) [Compound 26] | 5
CC[C@H](C)[C@@H]([C@@H](CC(=O)N1CCC[C@H]1[C@H](OC)[C@@H](C)C(=O)N[C@H](C)[C@@H](O)c1ccccc1)OC)N(C)C(=O)[C@@H](NC(=O)[C@H](C(C)C)N(C)C(=O)OCc1ccc(NC(=O)[C@H](CCCNC(N)=O)NC(=O)[C@@H](NC(=O)CCCCCN2C(=O)CC(SCCC(=O)NCCOCCOCCC(=O)NCCCC[C@H](NC(C)=O)C(=O)N3CCC[C@H]3C(=O)N(C)[C@@H](CCCNC(=N)N)C(=O)N[C@@H](CCCNC(=N)N)C(=O)N3CCC[C@H]3C(=O)N[C@@H](Cc3ccc(O)cc3)C(=O)N[C@H](C(=O)N[C@@H](CC(C)C)C(=O)O)C(C)(C)C)C2=O)C(C)C)cc1)C(C)C (some centres unmarked) [Compound 60] | 44.6
CC[C@H](C)[C@@H]([C@@H](CC(=O)N1CCC[C@H]1[C@H](OC)[C@@H](C)C(=O)N[C@H](C)[C@@H](O)c1ccccc1)OC)N(C)C(=O)[C@@H](NC(=O)[C@H](C(C)C)N(C)C(=O)OCc1ccc(NC(=O)[C@H](CCCNC(N)=O)NC(=O)[C@@H](NC(=O)CCCCCN2C(=O)CC(SCCC(=O)NCCOCCOCCOCCOCCC(=O)NCCCC[C@H](NC(C)=O)C(=O)N3CCC[C@H]3C(=O)N(C)[C@@H](CCCNC(=N)N)C(=O)N[C@@H](CCCNC(=N)N)C(=O)N3CCC[C@H]3C(=O)N[C@@H](Cc3ccc(O)cc3)C(=O)N[C@H](C(=O)N[C@@H](CC(C)C)C(=O)O)C(C)(C)C)C2=O)C(C)C)cc1)C(C)C (some centres unmarked) [Compound 61] | 33.7
CC[C@H](C)[C@@H]([C@@H](CC(=O)N1CCC[C@H]1[C@H](OC)[C@@H](C)C(=O)N[C@H](C)[C@@H](O)c1ccccc1)OC)N(C)C(=O)[C@@H](NC(=O)[C@H](C(C)C)N(C)C(=O)OCc1ccc(NC(=O)[C@H](CCCNC(N)=O)NC(=O)[C@@H](NC(=O)CCCCCN2C(=O)CC(SCCC(=O)NCCOCCOCCOCCOCCOCCOCCOCCOCCC(=O)NCCCC[C@H](NC(C)=O)C(=O)N3CCC[C@H]3C(=O)N(C)[C@@H](CCCNC(=N)N)C(=O)N[C@@H](CCCNC(=N)N)C(=O)N3CCC[C@H]3C(=O)N[C@@H](Cc3ccc(O)cc3)C(=O)N[C@H](C(=O)N[C@@H](CC(C)C)C(=O)O)C(C)(C)C)C2=O)C(C)C)cc1)C(C)C (some centres unmarked) [Compound 62] | 50.1
CCc1c2c(nc3ccc(O)cc13)-c1cc3c(c(=O)n1C2)COC(=O)[C@@]3(CC)OC(=O)CNC(=O)CNC(=O)[C@H](CC(C)C)NC(=O)[C@H](Cc1ccccc1)NC(=O)CNC(=O)CCCCCN1C(=O)CC(SC(C)(C)[C@H](NC(C)=O)C(=O)N2CCC[C@H]2C(=O)N[C@@H](CCCNC(=N)N)C(=O)N[C@@H](CCCNC(=N)N)C(=O)N2CCC[C@H]2C(=O)N[C@@H](Cc2ccc(O)cc2)C(=O)N[C@H](C(=O)N[C@@H](CC(C)C)C(=O)O)C(C)(C)C)C1=O (stereo partly drawn) [Compound 65] (I: Ac-[Pen]PRRPY[Tle]L-OH / II: GFLGG-{SN38(20-O)}; linker I:1-II:N via Hexanoyl(6-succinimido-3yl)) | 800
